Reference: EP0538001A1, “MRSA active 2-halophenyl carbapenems” (MERCK & CO. INC., priority 1991, dated 1993)

System: MRSA
Assay: Activity against a strain of MRSA pathogen, relative to thienamycin
Type: cell-based, methicillin resistant Staphylococcus aureus
Conditions: relative to the effectiveness of thienamycin, arbitrarily assigned an effectiveness of 1; one strain of MRSA
Method: The activity of the following compounds was measured against a strain of MRSA pathogen and reported as relative to the effectiveness of thienamycin, which is arbitrarily assigned an effectiveness of 1. Regarding this measure of activity, reference is made to R. Guthikonda, et al., J. Med. Chem., 30, 871 (1987). [drawing 18]

SMILES	ANTI-INFECTIVE ACTIVITY MRSA
C[C@@H](O)[C@H]1C(=O)N2C(C(=O)O)=C(c3cccc(Br)c3)C[C@H]12 [R^a1 = Br, R^a2 = H, sodium (5R,6S)-2-[3-bromophenyl]-6[(1R)-1-hydroxyethyl]-carbapen-2-em-3-carboxylate]	14
C[C@@H](O)[C@H]1C(=O)N2C(C(=O)O)=C(c3cccc(Cl)c3)C[C@H]12 [R^a1 = Cl, R^a2 = H]	8.1
C[C@@H](O)[C@H]1C(=O)N2C(C(=O)O)=C(c3cccc(F)c3)C[C@H]12 [R^a1 = F, R^a2 = H]	2
C[C@@H](O)[C@H]1C(=O)N2C(C(=O)O)=C(c3ccc(Br)cc3)C[C@H]12 [R^a1 = H, R^a2 = Br]	1.6
C[C@@H](O)[C@H]1C(=O)N2C(C(=O)O)=C(c3ccc(Cl)cc3)C[C@H]12 [R^a1 = H, R^a2 = Cl]	1.3
C[C@@H](O)[C@H]1C(=O)N2C(C(=O)O)=C(c3ccc(F)cc3)C[C@H]12 [R^a1 = H, R^a2 = F]	1.1
C[C@@H](O)[C@H]1C(=O)N2C(C(=O)O)=C(c3ccc(I)cc3)C[C@H]12 [R^a1 = H, R^a2 = I]	1.8
